Reference: US4029671A, “3-[(5-nitro-2-imidazolyl)pyrazol-5-yl]oxamic acid derivatives” (priority 1976, dated 1977)
Structures can show the parent of a compound that is named as a salt.

Experiments:
Type in all cases: cell-based
[1] = test system: Peptococcus asaccharolyticus 1302; test: Agar dilution susceptibility of anaerobic bacteria (Chart 1); conditions: agar dilution, 37° C., Peptococcus asaccharolyticus 1302
[2] = test system: Eubacterium aerofaciens 1235; test: as above; conditions: agar dilution, 37° C., Eubacterium aerofaciens 1235
[3] = test system: Clostridium septicum 1128; test: as above; conditions: 37° C.
Procedure: The susceptibility of anaerobic bacteria, both gram positive and gram negative, to a representative number of the novel compounds of this application was determined using the agar dilution method. The bacteria used were isolated from patients hospitalized at the Indiana Univerisity Medical Center. The isolates were identified in the anaerobe laboratory of the Medical Center by the criteria established by Dowell et al., Laboratory Methods in Anaerobic Bacteriology. Public Health Serv. Publ. NO. 1803 (1968) [Center for Disease Control, Atlanta, Ga.]; and by Smith et al., The Pathogenic Anaerobic Bacteria, pages 96- 136 (1968) [Charles C. Thomas, Publisher, Springfield, Ill.]. All the organisms were maintained in chopped meat glucose medium (Scott Labs) at room temperature.
The method used for the agar dilution tests was based on the studies of Sutter et al., Antimicrob. Ag. Chemother. 3, 188-193 (1973). The strains of anaerobic bacteria were grown in 16×× 120 mm. tubes for 16 to 18 hours in Thioglycolate medium without indicator-- 135C (Becton, Dickinson and Co.), to which was added 5 mcg. of hemin per milliliter prior to autoclaving, plus 1 mg. of sodium bicarbonate and 0.1 mcg. of filter-sterilized menadione per milliliter after autoclaving. The strains were adjusted to the turbidity of the No. 1 McFarland standard in Thioglycolate medium without indicator-- 135C containing an additional 0.13 percent Bacto-agar (Difco). Each strain was then applied to the surface of the petri plate (100 mm× 15 mm.) by means of a replicator.
For the agar dilution studies, two-fold dilutions of the test compounds were prepared in deionized water to which was then added laked sheep blood and filter-sterilized menadione so the concentrations after the agar dilution were 5 percent and 10 mcg./ml. respectively. An equal volume of double strength Brucella agar (Becton, Dickinson and Co.) was mixed with each dilution in a water bath held at 50° C. and then poured onto the petri dishes.
All of the procedures were done inside a plastic glove box, except for the incubation of the growth tubes and the pouring of the plates. After the plates hardened, they were put inside the glove box for a minimum of 2 hours before they were inoculated. Generally, the glove box procedures of Aranki et al., Applied Microbiology 17, 568-576 (1969), were followed, but the following modifications were used. Dry materials were introduced into the glove box by evacuating the lock to 28 inches of mercury and filling once with nitrogen gas, followed by evacuating in the same manner and filling with an 80 percent nitrogen plus 10 percent CO2 plus 10 percent hydrogen gas mixture. Liquid media and agar plates were introduced into the glove box by evacuating the lock to 10 inches of mercury and filling with gas four times. The nitrogen gas was used to fill the lock for the first two cycles of evacuation, with the gas mixture described above used for the final two fillings.
All the plates were incubated at 37° C. in Gas Pak jars (Becton, Dickinson and Co.) containing palladium-coated alumina catalysts (reactivated after each use). The results of the agar dilution tests were read after about 24 hours of incubation. The minimum inhibitory concentration (MIC) was recorded as the lowest concentration of test compound at which there was no growth.
The test compounds are identified by the number of the example describing their preparation. The antibiotics clindamycin (C), and erythromycin (E) were also run simultaneously with the novel compounds of this application,for comparison purposes, and the results are included in Chart 1 below.

[4] = test system: Peptostreptococcus anaerobius 1428; test: as above; conditions: agar dilution, 37° C., Peptostreptococcus anaerobius 1428
[5] = test system: Bacteroides fragilis sp. fragilis 1936B; test: as above; conditions: agar dilution, 37° C., Bacteroides fragilis sp. fragilis 1936B
[6] = test system: Peptostreptococcus intermedius 1264; test: as above; conditions: agar dilution, 37° C., Peptostreptococcus intermedius 1264
[7] = test system: Propionibacterium acnes 79; test: as above; conditions: Cutibacterium acnes, 79, 24 h, read-out: 24 Hr. MIC
[8] = test system: Bacteroides corrodens 1874; test: as above; conditions: agar dilution, 37° C., Bacteroides corrodens 1874
[9] = test system: Actinomyces israelii W855; test: as above; conditions: Actinomyces israelii, W855, 24 h, read-out: 24 Hr. MIC, agar dilution, 37° C.
[10] = test system: Fusobacterium necrophorum 6054A; test: as above; conditions: agar dilution, 37° C., Fusobacterium necrophorum 6054A
[11] = test system: Bacteroides melaninogenicus 2736; test: as above; conditions: agar dilution, 37° C., Bacteroides melaninogenicus 2736
[12] = test system: Fusobacterium symbiosum 1470; test: as above; conditions: agar dilution, 37° C., Fusobacterium symbiosum 1470
[13] = test system: Clostridium perfringens 81; test: microbe, parasite or virus in culture; conditions: agar dilution, 37° C.
[14] = test system: Bacteroides melaninogenicus 1856/28; test: Agar dilution susceptibility of anaerobic bacteria (Chart 1); conditions: agar dilution, 37° C., Bacteroides melaninogenicus 1856/28
[15] = test system: Bacteroides vulgatis 1211; test: as above; conditions: agar dilution, 37° C., Bacteroides vulgatis 1211
Peptococcus prevoti 1281 = test: as above; conditions: agar dilution, 37° C.
[16] = test system: Bacteroides fragilis sp. fragilis 62; test: as above; conditions: agar dilution, 37° C.; Bacteroides fragilis sp. fragilis 62; sodium salt
[17] = test system: Bacteroides fragilis sp. fragilis 1451; test: as above; conditions: agar dilution, 37° C.; Bacteroides fragilis sp. fragilis 1451; sodium salt
[18] = test system: Bacteroides fragilis sp. fragilis 108; test: as above; conditions: agar dilution, 37° C.; Bacteroides fragilis sp. fragilis 108; sodium salt
[19] = test system: Bacteroides fragilis sp. fragilis 110; test: as above; conditions: agar dilution, 37° C.; Bacteroides fragilis sp. fragilis 110; sodium salt
[20] = test system: Bacteroides fragilis sp. fragilis 9; test: as above; conditions: agar dilution, 37° C.; Bacteroides fragilis sp. fragilis 9; sodium salt
[21] = test system: Bacteroides fragilis sp. fragilis 2; test: as above; conditions: agar dilution, 37° C.; Bacteroides fragilis sp. fragilis 2; sodium salt
[22] = test system: Bacteroides fragilis sp. fragilis 107; test: as above; conditions: agar dilution, 37° C.; Bacteroides fragilis sp. fragilis 107; sodium salt
[23] = test system: Bacteroides fragilis sp. thetaiotaomicron 1438; test: as above; conditions: agar dilution, 37° C.; Bacteroides fragilis sp. thetaiotaomicron 1438; sodium salt
[24] = test system: Bacteroides fragilis sp. fragilis 111; test: as above; conditions: agar dilution, 37° C.; Bacteroides fragilis sp. fragilis 111; sodium salt
[25] = test system: Bacteroides fragilis sp. fragilis 1877; test: as above; conditions: agar dilution, 37° C.; Bacteroides fragilis sp. fragilis 1877; sodium salt
[26] = test system: Bacteroides fragilis sp. fragilis 1470; test: as above; conditions: agar dilution, 37° C.; Bacteroides fragilis sp. fragilis 1470; sodium salt
[27] = test system: Bacteroides fragilis sp. fragilis 103; test: as above; conditions: agar dilution, 37° C.; Bacteroides fragilis sp. fragilis 103; sodium salt
[28] = test system: Bacteroides fragilis sp. thetaiotaomicron 1900A; test: as above; conditions: agar dilution, 37° C.; Bacteroides fragilis sp. thetaiotaomicron 1900A; sodium salt
[29] = test system: Bacteroides fragilis sp. fragilis 113; test: as above; conditions: agar dilution, 37° C.; Bacteroides fragilis sp. fragilis 113; sodium salt
[30] = test system: Bacteroides fragilis sp. vulgatis 1563; test: as above; conditions: agar dilution, 37° C.; Bacteroides fragilis sp. vulgatis 1563; sodium salt
[31] = test system: Bacteroides fragilis sp. fragilis 112; test: as above; conditions: agar dilution, 37° C.; Bacteroides fragilis sp. fragilis 112; sodium salt

CCOC(=O)C(=O)Nc1c(C#N)c(-c2ncc([N+](=O)[O-])n2C)nn1C [Example 4, N-[4-Cyano-1-methyl-3-(1-methyl-5-nitroimidazol-2-yl)pyrazol-5-yl]oxamic acid, ethyl ester, ammonium salt]
24 Hr. MIC ([1]; ammonium salt): ≤ 0.5 µg/mL | 24 Hr. MIC ([2]; ammonium salt): ≤ 0.5 µg/mL | 24 Hr. MIC ([3]; ammonium salt): 16 µg/mL | 24 Hr. MIC ([4]; ammonium salt): ≤ 0.5 µg/mL | 24 Hr. MIC ([5]; ammonium salt): ≤ 0.5 µg/mL | 24 Hr. MIC ([6]; ammonium salt): ≤ 0.5 µg/mL | MIC [7]: > 128 µg/mL | 24 Hr. MIC ([8]; ammonium salt): ≤ 0.5 µg/mL | MIC [9]: > 128 µg/mL | 24 Hr. MIC ([10]; ammonium salt): ≤ 0.5 µg/mL | 24 Hr. MIC ([11]; ammonium salt): ≤ 0.5 µg/mL | 24 Hr. MIC ([12]; ammonium salt): ≤ 0.5 µg/mL | 24 Hr. MIC ([13]; ammonium salt): ≤ 0.5 µg/mL | 24 Hr. MIC ([14]; ammonium salt): 1.0 µg/mL | 24 Hr. MIC ([15]; ammonium salt): ≤ 0.5 µg/mL | 24 Hr. MIC (Peptococcus prevoti 1281; ammonium salt): 32 µg/mL

Cn1nc(-c2ncc([N+](=O)[O-])n2C)c(C#N)c1NC(=O)C(=O)NN [Example 8, 5-[4-Cyano-1-methyl-3-(1-methyl-5-nitroimidazol-2-yl)pyrazol-5-yl]semioxamazide, sodium salt]
24 Hr. MIC ([1]; sodium salt): 1.0 µg/mL | 24 Hr. MIC ([2]; sodium salt): 4 µg/mL | 24 Hr. MIC ([4]; sodium salt): 0.5 µg/mL | 24 Hr. MIC ([5]; sodium salt): 1.0 µg/mL | MIC [7]: > 128 µg/mL | 24 Hr. MIC ([8]; sodium salt): 1.0 µg/mL | MIC [9]: > 128 µg/mL | 24 Hr. MIC ([10]; sodium salt): 0.5 µg/mL | 24 Hr. MIC ([11]; sodium salt): 0.5 µg/mL | 24 Hr. MIC ([12]; sodium salt): 0.5 µg/mL | 24 Hr. MIC ([13]; sodium salt): 2 µg/mL | 24 Hr. MIC ([14]; sodium salt): 16 µg/mL | 24 Hr. MIC ([15]; sodium salt): 1.0 µg/mL | 24 Hr. MIC (Peptococcus prevoti 1281; sodium salt): 32 µg/mL

Cn1nc(-c2ncc([N+](=O)[O-])n2C)c(C#N)c1NC(=O)C(=O)c1ccccc1 [Example 11, N-[4-Cyano-1-methyl-3-(1-methyl-5-nitroimidazol-2-yl)pyrazol-5-yl]-2-phenylglyoxylamide, sodium salt]
24 Hr. MIC [16]: 0.06 µg/mL | 24 Hr. MIC [17]: 0.125 µg/mL | 24 Hr. MIC ([2]; sodium salt): 0.5 µg/mL | 24 Hr. MIC ([3]; sodium salt): 0.25 µg/mL | 24 Hr. MIC ([4]; sodium salt): 0.25 µg/mL | 24 Hr. MIC [18]: 0.06 µg/mL | 24 Hr. MIC ([5]; sodium salt): 0.06 µg/mL | 24 Hr. MIC [19]: 0.06 µg/mL | 24 Hr. MIC ([6]; sodium salt): 32 µg/mL | 24 Hr. MIC [20]: 0.06 µg/mL | 24 Hr. MIC [21]: 0.06 µg/mL | 24 Hr. MIC [22]: 0.06 µg/mL | 24 Hr. MIC ([8]; sodium salt): 0.25 µg/mL | 24 Hr. MIC ([10]; sodium salt): 0.25 µg/mL | 24 Hr. MIC ([11]; sodium salt): ≤ 0.03 µg/mL | 24 Hr. MIC [23]: 0.125 µg/mL | 24 Hr. MIC [24]: 0.06 µg/mL | 24 Hr. MIC ([13]; sodium salt): 0.5 µg/mL | 24 Hr. MIC ([14]; sodium salt): 16 µg/mL | 24 Hr. MIC [25]: 0.06 µg/mL | 24 Hr. MIC [26]: 0.06 µg/mL | 24 Hr. MIC [27]: 0.06 µg/mL | 24 Hr. MIC [28]: 0.125 µg/mL | 24 Hr. MIC [29]: 0.125 µg/mL | 24 Hr. MIC [30]: 0.25 µg/mL | 24 Hr. MIC [31]: 0.06 µg/mL | 24 Hr. MIC ([15]; sodium salt): 1.0 µg/mL | 24 Hr. MIC (Peptococcus prevoti 1281; sodium salt): 2 µg/mL
